The text below walks through data of patent US12723063B2, “GIPR-agonist compounds” (Eli Lilly and Company, priority 2019, dated 2026).

Holding throughout (assay): cAMP functional assay (HTRF) in HEK293 cells in presence of 0.1% casein
Holding throughout (assay type): cell-based

The target in assay [1] is T1, human GLP-1 receptor (GLP-1R) (Homo sapiens, UniProt P43220).
T1 construct: expressed in transfected cells; host or cells: HEK293
The conditions noted are these: HEK293 cells expressing human GLP-1R, geometric mean, read-out: hGLP1R cAMP Rel EC50 nM (SEM, n).

The target in assay [2] is T2, human glucagon receptor (GcgR) (Homo sapiens, UniProt P47871).
T2 construct: expressed in transfected cells; host or cells: HEK293
The conditions noted are these: HEK293 cells expressing human GcgR, geometric mean, read-out: hGcgR cAMP Rel EC50 nM (SEM, n).

The target of assay [3] is T3, human glucose-dependent insulinotropic peptide receptor (GIPR) (Homo sapiens, UniProt P48546).
T3 construct: expressed in transfected cells; host or cells: HEK293
T3 sequence (P48546 22-466): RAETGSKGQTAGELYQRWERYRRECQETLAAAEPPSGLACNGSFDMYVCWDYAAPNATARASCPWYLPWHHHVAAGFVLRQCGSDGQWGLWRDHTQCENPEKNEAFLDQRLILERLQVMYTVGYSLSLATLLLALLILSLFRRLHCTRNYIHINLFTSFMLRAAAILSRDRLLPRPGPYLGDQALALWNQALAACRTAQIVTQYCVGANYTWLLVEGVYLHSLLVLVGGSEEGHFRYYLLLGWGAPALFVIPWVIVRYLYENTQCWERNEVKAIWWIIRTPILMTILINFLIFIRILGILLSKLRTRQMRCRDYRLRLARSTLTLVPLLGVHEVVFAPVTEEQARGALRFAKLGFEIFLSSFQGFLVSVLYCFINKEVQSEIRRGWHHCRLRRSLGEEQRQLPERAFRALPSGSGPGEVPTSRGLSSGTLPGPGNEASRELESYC
The conditions noted are these: HEK293 cells expressing human GIPR, geometric mean, read-out: hGIPR cAMP Rel EC50 nM (SEM, n).

Each structure is given as a SMILES string. *1 amine or outer side, *2 acyl side, *3 side chain or, on linkers, in order; H or OH if unused. Where a SMILES comes first, the peptide text is derived from it. Side-chain parts run from the residue outwards. [ ]: non-standard residue; d: D form. The star is where a group is joined. C20 diacid = O=C(O)CCCCCCCCCCCCCCCCCCC(=O)*; αMePhe(2-F) = C[C@](N)(Cc1ccccc1F)C(=O)O; γGlu = O=C(O)[C@H](CCC(=O)[*:2])N[*:1]; 4Pal = N[C@@H](Cc1ccncc1)C(=O)O; αMeL = CC(C)C[C@](C)(N)C(=O)O; Orn = NCCC[C@H](N)C(=O)O; AEEA = NCCOCCOCC(=O)O; Aib = CC(C)(N)C(=O)O Where only a bound is given, the exact number is not on record here.

T1 sequence (P43220 24-463): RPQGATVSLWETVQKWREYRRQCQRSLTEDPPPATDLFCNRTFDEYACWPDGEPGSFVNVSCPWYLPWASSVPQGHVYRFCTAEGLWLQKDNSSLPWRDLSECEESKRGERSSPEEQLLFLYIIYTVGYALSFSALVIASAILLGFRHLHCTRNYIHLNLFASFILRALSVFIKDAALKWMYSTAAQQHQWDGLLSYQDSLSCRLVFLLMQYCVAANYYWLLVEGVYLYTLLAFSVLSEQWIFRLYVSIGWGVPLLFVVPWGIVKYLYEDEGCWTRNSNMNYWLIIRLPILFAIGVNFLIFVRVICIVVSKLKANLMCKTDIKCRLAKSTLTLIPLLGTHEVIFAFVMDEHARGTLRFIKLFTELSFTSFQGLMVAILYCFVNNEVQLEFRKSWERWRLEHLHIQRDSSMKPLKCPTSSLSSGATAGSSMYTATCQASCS
T2 sequence (P47871 26-477): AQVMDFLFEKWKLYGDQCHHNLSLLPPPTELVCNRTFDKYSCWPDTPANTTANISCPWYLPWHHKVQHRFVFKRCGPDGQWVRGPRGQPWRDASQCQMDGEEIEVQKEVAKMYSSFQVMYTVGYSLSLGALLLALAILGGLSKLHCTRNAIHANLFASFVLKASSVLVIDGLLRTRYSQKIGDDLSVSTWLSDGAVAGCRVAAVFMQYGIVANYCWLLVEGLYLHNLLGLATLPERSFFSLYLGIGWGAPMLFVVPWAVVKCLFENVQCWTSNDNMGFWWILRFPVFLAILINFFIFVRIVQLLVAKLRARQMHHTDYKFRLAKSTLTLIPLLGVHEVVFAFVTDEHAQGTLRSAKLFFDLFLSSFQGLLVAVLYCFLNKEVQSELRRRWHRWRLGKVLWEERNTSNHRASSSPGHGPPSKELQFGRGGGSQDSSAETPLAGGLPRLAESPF

For `CC[C@H](C)[C@H](NC(=O)[C@H](CO)NC(=O)[C@H](Cc1ccc(O)cc1)NC(=O)[C@H](CC(=O)O)NC(=O)[C@H](CO)NC(=O)[C@@H](NC(=O)[C@](C)(Cc1ccccc1F)NC(=O)[C@@H](NC(=O)CNC(=O)[C@H](CCC(=O)O)NC(=O)C(C)(C)NC(=O)[C@@H](N)Cc1ccc(O)cc1)[C@@H](C)O)[C@@H](C)CC)C(=O)N[C@@H](CC(C)C)C(=O)N[C@@H](CC(C)C)C(=O)N[C@@H](CC(=O)O)C(=O)N[C@@H](CCCCN)C(=O)N[C@H](C(=O)N[C@@H](Cc1c[nH]cn1)C(=O)N[C@@H](CCC(N)=O)C(=O)NC(C)(C)C(=O)N[C@@H](CC(=O)O)C(=O)N[C@@H](Cc1ccccc1)C(=O)N[C@H](C(=O)N[C@@H](CCC(=O)O)C(=O)N[C@@H](Cc1ccncc1)C(=O)N[C@@H](CCCCNC(=O)COCCOCCNC(=O)COCCOCCNC(=O)CC[C@H](NC(=O)CCCCCCCCCCCCCCCCCCC(=O)O)C(=O)O)C(=O)N[C@@H](CC(C)C)C(=O)N[C@@H](CCC(=O)O)C(=O)N[C@@H](C)C(=O)NCC(=O)N1CCC[C@H]1C(=O)N[C@@H](CO)C(=O)N[C@@H](CO)C(=O)NCC(=O)N[C@@H](C)C(=O)N1CCC[C@H]1C(=O)N1CCC[C@H]1C(=O)N1CCC[C@H]1C(=O)N[C@@H](CO)C(N)=O)C(C)C)[C@@H](C)CC` [Example 120] (H-Y[Aib]EGT[αMePhe(2-F)]ISDYSILLDKIHQ[Aib]DFVE[4Pal]K([AEEA-AEEA-γGlu-C20 diacid])LEAGPSSGAPPPS-NH2), the figures for the EC50 in assay [1], in assay [2] and in assay [3] were above 5000 nM, above 5000 nM and 0.0228 nM, respectively.
With `CC[C@H](C)[C@H](NC(=O)[C@H](CO)NC(=O)[C@H](Cc1ccc(O)cc1)NC(=O)[C@H](CC(=O)O)NC(=O)[C@H](CO)NC(=O)[C@@H](NC(=O)[C@](C)(Cc1ccccc1F)NC(=O)[C@@H](NC(=O)CNC(=O)[C@H](CCC(=O)O)NC(=O)C(C)(C)NC(=O)[C@@H](N)Cc1ccc(O)cc1)[C@@H](C)O)[C@@H](C)CC)C(=O)N[C@@H](CC(C)C)C(=O)N[C@@H](CC(C)C)C(=O)N[C@@H](CC(=O)O)C(=O)N[C@@H](CCCCN)C(=O)N[C@H](C(=O)N[C@@H](Cc1c[nH]cn1)C(=O)N[C@@H](CCC(N)=O)C(=O)NC(C)(C)C(=O)N[C@@H](CC(=O)O)C(=O)N[C@@H](Cc1ccccc1)C(=O)N[C@H](C(=O)N[C@@H](CCC(=O)O)C(=O)N[C@@H](Cc1ccncc1)C(=O)N[C@@H](CCCCNC(=O)COCCOCCNC(=O)COCCOCCNC(=O)CC[C@H](NC(=O)CCCCCCCCCCCCCCCCCCC(=O)O)C(=O)O)C(=O)N[C@@H](CC(C)C)C(=O)N[C@@H](CCC(=O)O)C(=O)N[C@@H](CCC(N)=O)C(=O)NCC(=O)N1CCC[C@H]1C(=O)N[C@@H](CO)C(=O)N[C@@H](CO)C(=O)NCC(=O)N[C@@H](C)C(=O)N1CCC[C@H]1C(=O)N1CCC[C@H]1C(=O)N1CCC[C@H]1C(=O)N[C@@H](CO)C(N)=O)C(C)C)[C@@H](C)CC` [Example 121] (H-Y[Aib]EGT[αMePhe(2-F)]ISDYSILLDKIHQ[Aib]DFVE[4Pal]K([AEEA-AEEA-γGlu-C20 diacid])LEQGPSSGAPPPS-NH2), the values for the concentration giving a half-maximal response (EC50) in assay [1], in assay [2] and in assay [3] were above 5000 nM, above 5000 nM and 0.0196 nM, respectively.
`CC[C@H](C)[C@H](NC(=O)[C@H](CCCN)NC(=O)[C@H](CC(=O)O)NC(=O)[C@H](CC(C)C)NC(=O)[C@](C)(CC(C)C)NC(=O)[C@@H](NC(=O)[C@H](CO)NC(=O)[C@H](Cc1ccc(O)cc1)NC(=O)[C@H](CC(=O)O)NC(=O)[C@H](CO)NC(=O)[C@@H](NC(=O)[C@H](Cc1ccccc1)NC(=O)[C@@H](NC(=O)CNC(=O)[C@H](CCC(=O)O)NC(=O)C(C)(C)NC(=O)[C@@H](N)Cc1ccc(O)cc1)[C@@H](C)O)[C@@H](C)CC)[C@@H](C)CC)C(=O)N[C@@H](Cc1c[nH]cn1)C(=O)N[C@@H](CCC(N)=O)C(=O)NC(C)(C)C(=O)N[C@@H](CCC(=O)O)C(=O)N[C@@H](Cc1ccccc1)C(=O)N[C@H](C(=O)N[C@@H](CCC(=O)O)C(=O)N[C@@H](Cc1ccncc1)C(=O)N[C@@H](CCCCNC(=O)COCCOCCNC(=O)COCCOCCNC(=O)CC[C@H](NC(=O)CCCCCCCCCCCCCCCCCCC(=O)O)C(=O)O)C(=O)N[C@@H](CC(C)C)C(=O)N[C@@H](CCC(=O)O)C(=O)N[C@@H](C)C(=O)NCC(=O)N1CCC[C@H]1C(=O)N[C@@H](CO)C(=O)N[C@@H](CO)C(=O)NCC(=O)N[C@@H](C)C(=O)N1CCC[C@H]1C(=O)N1CCC[C@H]1C(=O)N1CCC[C@H]1C(=O)N[C@@H](CO)C(N)=O)C(C)C` [Example 122] (H-Y[Aib]EGTFISDYSI[αMeL]LD[Orn]IHQ[Aib]EFVE[4Pal]K([AEEA-AEEA-γGlu-C20 diacid])LEAGPSSGAPPPS-NH2): the 50% effective concentration (EC50) was above 5000 nM in assay [1], above 5000 nM in assay [2] and 0.01 nM in assay [3].
